According to US8629169B2, “4-substituted-3-phenylsulfanylmethyl-bicyclo[3.1.0]hexane compounds as mGluR 2/3 antagonists” (Eli Lilly and Company, priority 2010, dated 2014):

Tests used:
[1] = molecular target: T1, M2 muscarinic receptor (Homo sapiens, UniProt P08172); assay: Off-target activity, known assay methods, M2
T1 sequence (P08172 1-466): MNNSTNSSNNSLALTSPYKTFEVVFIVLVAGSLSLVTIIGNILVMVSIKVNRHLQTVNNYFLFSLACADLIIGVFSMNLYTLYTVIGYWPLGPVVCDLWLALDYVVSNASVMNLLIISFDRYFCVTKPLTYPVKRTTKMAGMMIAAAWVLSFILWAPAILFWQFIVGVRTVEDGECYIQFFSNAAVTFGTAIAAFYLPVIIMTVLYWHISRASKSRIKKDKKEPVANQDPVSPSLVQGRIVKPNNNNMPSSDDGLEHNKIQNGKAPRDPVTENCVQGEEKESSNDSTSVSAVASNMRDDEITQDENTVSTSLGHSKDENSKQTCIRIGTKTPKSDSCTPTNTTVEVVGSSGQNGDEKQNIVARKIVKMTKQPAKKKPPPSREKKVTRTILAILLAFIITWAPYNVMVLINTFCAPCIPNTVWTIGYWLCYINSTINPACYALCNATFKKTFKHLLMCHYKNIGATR

[2] = molecular target: T2, human mGlu5 receptor (Homo sapiens, UniProt P41594); assay: FLIPR calcium antagonist assay for mGlu receptor selectivity, mGlu5; type: cell-based; conditions: inhibition of EC90 glutamate response, read-out: mGlu5 % inhib. @12.5 μM
T2 construct: expressed in transfected cells; host or cells: AV12 cells co-expressing rat EAAT1
Description: (§1) The relative antagonist potencies of the compounds of the invention for the other human mGlu receptors can be assessed with either a cAMP assay or fluorometric calcium response assay (see for example Fell et al., JPET (in press)). Briefly, individual AV12 cell lines containing the rat EAAT1 glutamate transporter and stably expressing the human mGlu1, 2, 3, 4, 5, 6, & 8 receptors are used for these studies. The mGlu1 and 5 receptors are Gq-coupled, so they naturally signal through phospholipase C, producing a calcium flux response which can be used to measure receptor activation using a Fluorometric Imaging Plate Reader (FLIPR, Molecular Devices). […]
(§2) Intracellular calcium levels are monitored using FLIPR before and after the addition of test compounds and Fluo-3 AM (Invitrogen) or Calcium 4 (Molecular Devices) dye, depending on the cell line. […] The results are analyzed using GraphPad Prism v4.03 to calculate the concentrations of glutamate needed to induce the EC90 (antagonist assay) and EC10 (potentiator assay) responses.
(§3) Compounds are tested at each mGlu receptor in a two-addition FLIPR assay using a 10-point concentration response profile starting at a final concentration of 25 μM for the agonist assay and 12.5 μM for the potentiator and antagonist assays. […] Agonist effects are quantified as percent stimulation induced by compound alone relative to the maximal glutamate response. […]

[3] = test system: wild type, mGlu2(−/−), mGlu3(−/−) and double knockout mice; assay: Wakefulness in mGlu2 and/or mGlu3 receptor deletion mice; type: in vivo, mouse; conditions: 10 mg/kg, i.p.
Description: Additionally, in three separate experiments, mice with single mGlu2(−/−), single mGlu3(−/−), or double mGlu2(−/−) mGlu3(−/−) receptor deletions are studied.

[4] = molecular target: T3, human mGlu3 receptor (Homo sapiens, UniProt Q14832); assay: mGlu3 receptor cAMP antagonist assay; type: cell-based; conditions: reversal of DCG IV (EC90) inhibition of forskolin-stimulated cAMP; relative IC50
T3 construct: expressed in transfected cells; host or cells: AV12 cells co-expressing rat EAAT1
Procedure: Antagonist activity is assayed in recombinant AV12 cells stably expressing human mGlu2 or mGlu3 receptors and the rat glutamate transporter EAAT1 (Excitatory Amino Acid Transporter 1). The cell lines are maintained by culturing in DMEM with high glucose and pyridoxine hydrochloride supplemented with 5% dialyzed fetal bovine serum (FBS), 1 mM sodium pyruvate, 1 mM HEPES and 1 mM L-glutamine; geneticin and hygromycin B are used as selection antibiotics.
Reversal of the inhibition of forskolin-stimulated cAMP production by test compounds is measured using homogeneous time resolved fluorescence technology (HTRF; Cisbio cat #62AM4PEB). The medium is removed and the cells are incubated with 100 μl cAMP stimulation buffer (STIM) for 30 minutes at 37° C. […] Cells are incubated at 37° C. for 20 minutes. To measure the cAMP levels, cAMP-d2 conjugate and anti cAMP-cryptate conjugate in lysis buffer are incubated with the treated cells at room temperature for 1 hour (mGlu2) or 1.5 hour (mGlu3). […] The raw data are converted to cAMP amount (pmole/well) using a cAMP standard curve generated for each experiment. Relative IC50 values are calculated from the top-bottom range of the concentration response curve using a four-parameter logistic curve fitting program (ActivityBase v5.3.1.22).

[5] = molecular target: iGluR5 (Homo sapiens, UniProt P39086); assay: Off-target activity, known assay methods, iGluR5
[6] = molecular target: 5-HT2B serotonin receptor (Homo sapiens, UniProt P41595); assay: Off-target activity, known assay methods, 5-HT2B
[7] = molecular target: T4, human mGlu1 receptor (Homo sapiens, UniProt Q13255); assay: FLIPR calcium antagonist assay for mGlu receptor selectivity, mGlu1; type: cell-based; conditions: inhibition of EC90 glutamate response, read-out: mGlu1 % inhib. @12.5 μM
T4 construct: expressed in transfected cells; host or cells: AV12 cells co-expressing rat EAAT1
Description: as §1, §2, §3

[8] = molecular target: 5-HT2A serotonin receptor (Homo sapiens, UniProt P28223); assay: Off-target activity, known assay methods, 5-HT2A
[9] = molecular target: hERG channel (Homo sapiens, UniProt Q12809); assay: Off-target activity, known assay methods, hERG
[10] = molecular target: T5, human mGlu4 receptor (Homo sapiens, UniProt Q14833); assay: FLIPR calcium antagonist assay for mGlu receptor selectivity, mGlu4; type: cell-based; conditions: inhibition of EC90 glutamate response, read-out: mGlu4 % inhib. @12.5 μM
T5 construct: expressed in transfected cells; host or cells: AV12 cells co-expressing rat EAAT1 and Galpha15
Description: as §1, §2, §3

[11] = test system: male NIH-Swiss mice; assay: Forced-swim test in mice (mFST); type: in vivo, mouse; conditions: for ED60 (mg/kg): immobility, last 4 min of 6 min; for Maximal Decrease (1 − compound/control) * 100%: immobilization time
[12] = molecular target: T6, human mGlu8 receptor (Homo sapiens, UniProt O00222); assay: FLIPR calcium antagonist assay for mGlu receptor selectivity, mGlu8; type: cell-based
T6 construct: expressed in transfected cells; host or cells: AV12 cells co-expressing rat EAAT1 and Galpha15
Description: (§4) The relative antagonist potencies of the compounds of the invention for the other human mGlu receptors can be assessed with either a cAMP assay or fluorometric calcium response assay (see for example Fell et al., JPET (in press)). Briefly, individual AV12 cell lines containing the rat EAAT1 glutamate transporter and stably expressing the human mGlu1, 2, 3, 4, 5, 6, & 8 receptors are used for these studies. The mGlu1 and 5 receptors are Gq-coupled, so they naturally signal through phospholipase C, producing a calcium flux response which can be used to measure receptor activation using a Fluorometric Imaging Plate Reader (FLIPR, Molecular Devices). The cell lines expressing the mGlu2, 3, 4, and 8 receptor are designed to express the Gα15 subunit so that these Gi-coupled receptors will generate a calcium flux response similar to the mGlu1 and 5 receptor expressing cell lines. The mGlu6 receptor is tested in a cAMP format using methods analogous to those developed for mGlu2 and mGlu3 above. These cell lines are maintained as previously described except that amounts of L-glutamine and selection agents (geneticin, hygromycin B, zeocin, and blasticidin) may vary depending on the cell line. Confluent cultures are passaged biweekly.
Intracellular calcium levels are monitored using FLIPR before and after the addition of test compounds and Fluo-3 AM (Invitrogen) or Calcium 4 (Molecular Devices) dye, depending on the cell line. Cells are plated 24 hours prior to assay in a variable concentration of glutamine and a variable density of cells per well, depending on the cell line. The medium is removed and the cells are incubated with 8 μM of dye (50 μl per well) for 90 or 120 minutes (depending on cell line) at 25° C. […] The results are analyzed using GraphPad Prism v4.03 to calculate the concentrations of glutamate needed to induce the EC90 (antagonist assay) and EC10 (potentiator assay) responses.
Compounds are tested at each mGlu receptor in a two-addition FLIPR assay using a 10-point concentration response profile starting at a final concentration of 25 μM for the agonist assay and 12.5 μM for the potentiator and antagonist assays. […] Agonist effects are quantified as percent stimulation induced by compound alone relative to the maximal glutamate response. Antagonist effects are quantified by calculating the percent inhibition of the EC90 glutamate response caused by the compound. Potentiation effects are quantified as percent increase in the presence of an EC10 response in glutamate relative to the ECmax response. All data are calculated as relative IC50 or EC50 values using a four-parameter logistic curve fitting program (ActivityBase v5.3.1.22).

[13] = molecular target: T7, human mGlu6 receptor (Homo sapiens, UniProt O15303); assay: mGlu6 cAMP antagonist assay (reference agonist L-AP4); type: cell-based; conditions: cAMP format
T7 construct: expressed in transfected cells; host or cells: AV12 cells co-expressing rat EAAT1
Description: as §4, with “These cell lines are maintained as previously described except that amounts of L-glutamine and selection agents (geneticin, hygromycin B, zeocin, and blasticidin) may vary depending on the cell line. Confluent cultures are passaged biweekly.” left out
Antagonist activity in mGlu6 cells is measured using cAMP in a method analogous to that described above for mGlu2 and mGlu3 activity, except that the reference agonist was L-AP4 (Tocris). […] Relative IC50 and EC50 values are calculated from the top-bottom range of the concentration response curve using a four-parameter logistic curve fitting program (ActivityBase v5.3.1.22).

[14] = test system: mGlu2+/+ and mGlu2−/− mice; assay: mFST in mGlu2 knock-out mice and +/+ littermates; conditions: 10 mg/kg, i.p., 30 min prior
Procedure: Briefly, male NIH-Swiss mice (Harlan Sprague-Dawley, Indianapolis, Ind.) weighing between 25-30 g are used. Group housed animals are removed from the vivarium to the testing area in their own cages and allowed to adapt to the new environment for at least 1 hour before testing. […] Mice are placed in a cylinder (diameter: 10 cm; height: 25 cm) filled with 6 cm of water (22-25° C.) for 6 min. The duration of immobility during the last 4 min. of the 6 min. period of the test was scored. A mouse is recorded as immobile when floating motionless or making only those movements necessary to keep its head above water.
In other experiments, mice with receptor deletions (mGlu2 knock-out mice) are studied; these mice are bred by heterozygote×heterozygote breeding and used as littermates for −/− and +/+ mouse comparisons (Taconic Farms).

[15] = test system: mice; assay: mFST alone and in combination with SSRI; type: in vivo, mouse; conditions: Example 12 10 mg/kg p.o.
[16] = citalopram experiment, citalopram 1 mg/kg i.p.
[17] = fluoxetine experiment, fluoxetine 10 mg/kg i.p.

T6 sequence (O00222 34-908): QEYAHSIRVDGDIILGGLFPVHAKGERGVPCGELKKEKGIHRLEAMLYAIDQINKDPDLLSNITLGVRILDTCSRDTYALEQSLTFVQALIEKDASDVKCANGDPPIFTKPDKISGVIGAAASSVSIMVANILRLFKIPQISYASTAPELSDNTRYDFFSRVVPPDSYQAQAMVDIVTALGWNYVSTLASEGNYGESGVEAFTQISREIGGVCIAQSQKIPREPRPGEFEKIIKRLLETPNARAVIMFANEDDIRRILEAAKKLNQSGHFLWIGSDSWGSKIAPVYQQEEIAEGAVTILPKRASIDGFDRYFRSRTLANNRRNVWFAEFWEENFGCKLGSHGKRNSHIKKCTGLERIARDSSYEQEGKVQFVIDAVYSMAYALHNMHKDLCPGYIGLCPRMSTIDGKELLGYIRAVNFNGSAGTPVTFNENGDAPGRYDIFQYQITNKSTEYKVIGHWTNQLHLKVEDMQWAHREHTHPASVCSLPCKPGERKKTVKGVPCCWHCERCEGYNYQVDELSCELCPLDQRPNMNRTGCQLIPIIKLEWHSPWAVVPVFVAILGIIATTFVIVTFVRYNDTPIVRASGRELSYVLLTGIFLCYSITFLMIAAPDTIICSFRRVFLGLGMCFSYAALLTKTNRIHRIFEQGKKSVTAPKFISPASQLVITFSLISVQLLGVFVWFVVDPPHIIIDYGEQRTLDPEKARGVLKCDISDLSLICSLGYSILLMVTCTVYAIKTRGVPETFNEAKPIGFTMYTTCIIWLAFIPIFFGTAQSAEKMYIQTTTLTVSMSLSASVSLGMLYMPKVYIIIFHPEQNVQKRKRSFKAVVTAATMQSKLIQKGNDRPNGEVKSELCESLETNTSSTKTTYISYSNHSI
Chain of iGluR5 (P39086 31-918): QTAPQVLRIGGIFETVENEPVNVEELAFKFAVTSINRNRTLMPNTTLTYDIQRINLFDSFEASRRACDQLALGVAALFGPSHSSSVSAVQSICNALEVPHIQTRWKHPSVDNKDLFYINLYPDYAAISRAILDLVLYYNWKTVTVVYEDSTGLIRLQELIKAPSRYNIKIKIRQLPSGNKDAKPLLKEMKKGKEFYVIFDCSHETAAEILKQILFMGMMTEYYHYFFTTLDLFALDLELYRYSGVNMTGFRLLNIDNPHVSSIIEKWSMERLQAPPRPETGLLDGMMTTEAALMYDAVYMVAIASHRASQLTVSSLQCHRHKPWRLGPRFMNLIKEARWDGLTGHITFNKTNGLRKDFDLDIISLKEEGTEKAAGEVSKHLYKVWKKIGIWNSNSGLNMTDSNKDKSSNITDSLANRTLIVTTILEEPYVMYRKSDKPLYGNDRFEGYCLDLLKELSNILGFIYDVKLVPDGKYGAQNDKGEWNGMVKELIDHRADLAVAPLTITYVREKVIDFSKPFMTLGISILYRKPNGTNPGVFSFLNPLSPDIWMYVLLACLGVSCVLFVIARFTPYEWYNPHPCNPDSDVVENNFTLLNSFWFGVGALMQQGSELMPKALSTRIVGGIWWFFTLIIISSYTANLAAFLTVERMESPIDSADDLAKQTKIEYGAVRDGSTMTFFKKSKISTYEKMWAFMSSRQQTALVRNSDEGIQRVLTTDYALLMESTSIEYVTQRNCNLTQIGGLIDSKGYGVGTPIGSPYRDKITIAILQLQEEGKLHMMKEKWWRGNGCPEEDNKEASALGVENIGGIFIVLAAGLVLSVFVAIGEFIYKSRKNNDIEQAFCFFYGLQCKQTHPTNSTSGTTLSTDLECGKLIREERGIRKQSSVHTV
T3 sequence (Q14832 23-879): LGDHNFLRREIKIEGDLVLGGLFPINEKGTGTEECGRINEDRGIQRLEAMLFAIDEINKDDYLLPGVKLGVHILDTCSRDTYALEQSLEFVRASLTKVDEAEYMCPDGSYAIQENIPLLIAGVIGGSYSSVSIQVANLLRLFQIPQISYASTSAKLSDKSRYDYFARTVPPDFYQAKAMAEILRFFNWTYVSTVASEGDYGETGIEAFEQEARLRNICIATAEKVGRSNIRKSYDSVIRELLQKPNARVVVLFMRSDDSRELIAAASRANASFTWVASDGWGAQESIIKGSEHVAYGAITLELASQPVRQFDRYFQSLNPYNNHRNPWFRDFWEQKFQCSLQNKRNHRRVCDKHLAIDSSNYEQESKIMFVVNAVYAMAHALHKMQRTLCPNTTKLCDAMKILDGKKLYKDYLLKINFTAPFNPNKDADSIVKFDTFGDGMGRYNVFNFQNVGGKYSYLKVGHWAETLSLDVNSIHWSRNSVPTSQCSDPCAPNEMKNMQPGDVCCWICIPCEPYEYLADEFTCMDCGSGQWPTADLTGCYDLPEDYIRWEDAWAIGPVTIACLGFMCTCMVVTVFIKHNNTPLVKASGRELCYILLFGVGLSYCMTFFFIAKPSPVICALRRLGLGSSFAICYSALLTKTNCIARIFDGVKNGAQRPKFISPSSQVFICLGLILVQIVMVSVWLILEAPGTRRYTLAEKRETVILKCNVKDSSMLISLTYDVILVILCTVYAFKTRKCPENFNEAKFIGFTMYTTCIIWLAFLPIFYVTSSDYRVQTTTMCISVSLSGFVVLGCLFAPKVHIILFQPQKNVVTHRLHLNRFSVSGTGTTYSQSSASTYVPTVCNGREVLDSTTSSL
T2 sequence (P41594 21-1212): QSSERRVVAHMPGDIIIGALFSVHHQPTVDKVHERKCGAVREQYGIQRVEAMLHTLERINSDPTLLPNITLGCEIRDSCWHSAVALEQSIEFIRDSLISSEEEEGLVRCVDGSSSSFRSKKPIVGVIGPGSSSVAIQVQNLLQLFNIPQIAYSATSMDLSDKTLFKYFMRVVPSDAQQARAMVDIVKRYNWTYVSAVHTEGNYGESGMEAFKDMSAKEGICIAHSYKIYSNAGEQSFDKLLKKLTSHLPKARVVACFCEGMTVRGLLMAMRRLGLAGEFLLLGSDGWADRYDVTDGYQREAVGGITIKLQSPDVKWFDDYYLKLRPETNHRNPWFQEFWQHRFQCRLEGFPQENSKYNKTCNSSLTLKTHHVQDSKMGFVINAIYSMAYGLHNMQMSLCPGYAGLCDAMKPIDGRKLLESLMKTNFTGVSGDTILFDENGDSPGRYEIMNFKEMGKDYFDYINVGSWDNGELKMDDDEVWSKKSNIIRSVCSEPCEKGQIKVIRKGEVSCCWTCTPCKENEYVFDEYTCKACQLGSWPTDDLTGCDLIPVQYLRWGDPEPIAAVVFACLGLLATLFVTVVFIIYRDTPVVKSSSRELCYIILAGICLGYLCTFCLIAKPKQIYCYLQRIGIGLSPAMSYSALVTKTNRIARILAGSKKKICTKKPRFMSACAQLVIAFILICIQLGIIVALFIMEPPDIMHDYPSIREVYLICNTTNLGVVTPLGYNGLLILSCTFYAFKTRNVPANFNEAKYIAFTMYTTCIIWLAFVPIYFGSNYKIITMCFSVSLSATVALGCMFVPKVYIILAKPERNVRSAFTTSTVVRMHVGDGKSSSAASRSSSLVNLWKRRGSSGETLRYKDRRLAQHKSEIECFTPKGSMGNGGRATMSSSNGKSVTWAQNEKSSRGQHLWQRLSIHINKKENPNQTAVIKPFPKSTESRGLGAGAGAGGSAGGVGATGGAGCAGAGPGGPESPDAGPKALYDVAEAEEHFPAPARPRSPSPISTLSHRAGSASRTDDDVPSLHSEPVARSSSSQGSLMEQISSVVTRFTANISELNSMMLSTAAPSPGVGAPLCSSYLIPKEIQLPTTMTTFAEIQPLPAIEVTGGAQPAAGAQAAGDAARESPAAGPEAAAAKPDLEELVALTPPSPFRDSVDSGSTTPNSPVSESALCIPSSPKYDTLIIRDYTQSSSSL
T7 sequence (O15303 25-877): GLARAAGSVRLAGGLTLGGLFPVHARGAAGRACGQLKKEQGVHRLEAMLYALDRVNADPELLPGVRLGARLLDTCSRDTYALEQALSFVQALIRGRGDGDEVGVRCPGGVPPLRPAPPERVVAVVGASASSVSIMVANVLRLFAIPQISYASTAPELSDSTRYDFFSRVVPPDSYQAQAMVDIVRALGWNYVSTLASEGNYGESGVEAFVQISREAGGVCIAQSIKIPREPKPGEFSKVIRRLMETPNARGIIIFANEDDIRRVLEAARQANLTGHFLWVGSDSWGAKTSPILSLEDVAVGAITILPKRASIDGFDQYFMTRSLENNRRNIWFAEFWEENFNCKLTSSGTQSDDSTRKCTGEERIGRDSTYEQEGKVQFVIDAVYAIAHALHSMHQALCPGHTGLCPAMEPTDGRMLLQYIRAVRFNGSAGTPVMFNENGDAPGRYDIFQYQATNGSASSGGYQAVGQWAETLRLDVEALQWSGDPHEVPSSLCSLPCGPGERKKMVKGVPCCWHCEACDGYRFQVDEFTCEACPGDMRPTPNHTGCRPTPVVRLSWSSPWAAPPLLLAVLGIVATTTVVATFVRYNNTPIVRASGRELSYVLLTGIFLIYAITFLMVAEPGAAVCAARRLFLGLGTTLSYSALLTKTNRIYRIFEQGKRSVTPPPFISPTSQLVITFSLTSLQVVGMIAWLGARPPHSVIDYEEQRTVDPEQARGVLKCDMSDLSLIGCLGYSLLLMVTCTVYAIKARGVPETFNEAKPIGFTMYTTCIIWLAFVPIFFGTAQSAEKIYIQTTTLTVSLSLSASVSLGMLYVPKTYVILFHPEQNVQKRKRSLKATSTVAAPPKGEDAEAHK

`Cl.N[C@]1(C(=O)O)[C@@H]2[C@@H](C(=O)O)[C@@H]2[C@H](O)[C@H]1CSc1ccc(F)c(F)c1` [Example 1, (1S,2R,3S,4S,5R,6R)-2-Amino-3-{[(3,4-difluorophenyl)sulfanyl]methyl}-4-hydroxybicyclo[3.1.0]hexane-2,6-dicarboxylic acid hydrochloride] was tested, and the “activity at muscarinic receptor M2” value [1] was “no appreciable activity”, the inhibition at 12.5 µM [2] was -2% and the “wakefulness in double knockout mGlu2(−/−) mGlu3(−/−) mice” value ([3]; double knockout) was “not significantly increase wakefulness”. The “wakefulness in single knockout mGlu2(−/−) mice” value ([3]; mGlu2(−/−), though at a reduced level) was “significantly increase wakefulness”, the “wakefulness in single knockout mGlu3(−/−) mice” value ([3]; mGlu3(−/−), though at a reduced level) was “significantly increase wakefulness” and the “wakefulness in wild type mice” value ([3]; wild type) was “significantly increase wakefulness”. The IC50 [4] was 6.2 ± 2.2 nM, the “activity at iGluR5” value [5] was “no appreciable activity” and the “activity at serotonin receptor 5-HT2B” value [6] was “no appreciable activity”. The inhibition at 12.5 µM [7] was 6.3%, the “activity at serotonin receptor 5-HT2A” value [8] was “no appreciable activity” and the “activity at the hERG channel” value [9] was “no appreciable activity”. The inhibition at 12.5 µM [10] was 17.9%, the “ED60 (mg/kg)” value ([11]; i.p.) was 8.0 (i.p.) mg/kg and the “Maximal Decrease (1 − compound/control) * 100%” value ([11]; i.p.) was 36.1%. It also gave an inhibition at 12.5 µM ([12]; 12.5 μM, inhibition of EC90 glutamate response, read-out: mGlu8 % inhib. @12.5 μM) of 47%, an IC50 ([12]; FLIPR antagonist, in brackets under % inhib.) of 4.97 µM and an IC50 [13] of 1720 nM. For the same compound, the “immobility time in mGlu2+/+ mice” value [14] was “significantly decrease immobility time”.
`CC(C)OC(=O)OCOC(=O)[C@H]1[C@@H]2[C@H](O)[C@@H](CSc3ccc(F)c(Cl)c3)[C@@](N)(C(=O)OCOC(=O)OC(C)C)[C@H]12.Cl` [Example 22, Bis({[(1-methylethoxy)carbonyl]oxy}methyl) (1S,2R,3S,4S,5R,6R)-2-amino-3-{[(3-chloro-4-fluorophenyl)sulfanyl]methyl}-4-hydroxybicyclo[3.1.0]hexane-2,6-dicarboxylate hydrochloride] was tested, and the “ED60 (mg/kg)” value ([11]; p.o.) was 20.5 (p.o.) mg/kg and the “Maximal Decrease (1 − compound/control) * 100%” value ([11]; p.o.) was 50.1%.
For `CN(C)CCCC1(c2ccc(F)cc2)OCc2cc(C#N)ccc21` (stereo not shown) [Citalopram, citalopram, reference compound], the “Immobilization Time” value [15, 16] was 102 s and the “Maximal Decrease (1 − compound/control) * 100%” value [15, 16] was 42.1%.
In the case of `CNCCC(Oc1ccc(C(F)(F)F)cc1)c1ccccc1` (stereo not shown) [Fluoxetine, fluoxetine, reference compound], the “Immobilization Time” value [15, 17] is reported as 118 s and the “Maximal Decrease (1 − compound/control) * 100%” value [15, 17] is reported as 31.5%.
